Measured values published in patent US20240174690A1, “ANNULATED 2-AMINO-3-CYANO THIOPHENES AND DERIVATIVES FOR THE TREATMENT OF CANCER” (BOEHRINGER INGELHEIM INTERNATIONAL GMBH, priority 2021, published 2024).
Values after ≈ are worked out from the molar mass of the structure shown. Where two headings read alike, the source gives them in different places.

Experiments:
[1] = tested on: KRAS G12V-dependent Ba/F3 cells; assay: Ba/F3 proliferation assay, KRAS G12V; format: cell-based; conditions: Mus musculus, BaF3, 72 h, AlamarBlue;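 also: proliferation IC50 in KRAS G12V-dependent Ba/F3 cells read by AlamarBlue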
Method: Plasmids containing KRASG12 mutants (i.e. […], G12C, G12V) are obtained from GeneScript. To generate KRASG12-dependent Ba/F3 models, Ba/F3 cells are transduced with retroviruses containing vectors that harbor KRASG12 isoforms. Platinum-E cells (Cell Biolabs) are used for retrovirus packaging. Retrovirus is added to Ba/F3 cells. To ensure infection, 4 μg/mL polybrene is added and cells are spinfected. […] Cells with an infection efficiency of 10% to 20% are further cultivated and puromycin selection with 1 μg/mL is initiated. As a control, parental Ba/F3 cells are used to show selection status. Selection is considered successful when parental Ba/F3 cells cultures died. To evaluate the transforming potential of KRASG12 mutations, the growth medium is no longer supplemented with IL-3. Ba/F3 cells harboring the empty vector are used as a control. Approximately ten days before conducting the experiments, puromycin is left out.
Compounds are added using an Access Labcyte Workstation with a Labcyte Echo 550 or 555 accoustic dispenser. All treatments are performed in technical duplicates. […] AlamarBlue™ (ThermoFisher), a viability stain, is added and fluorescence measured in the PerkinElmer Envision HTS Multilabel Reader. The raw data are imported into and analyzed with the Boehringer Ingelheim proprietary software MegaLab (curve fitting based on the program PRISM, GraphPad Inc.).

NCI-H2122 cells = assay: NCI-H2122 CTG proliferation assay (120 h) (NSCLC, G12C); format: cell-based; conditions: Homo sapiens
Method: NCI-H2122 CTG Proliferation Assay (120 h) (NSCLC, G12C)
The CTG assay is designed to measure quantitatively the proliferation of NCI-H2122 cells (ATCC CRL-5985), using the CellTiter Glow Assay Kit (Promega G7571). Cells are grown in RPMI medium (ATCC) supplemented with Fetal Calf Serum (Life Technologies, Gibco BRL, Cat. No. 10270-106). On “day 0” 200 NCI-H2122 cells are seeded in 60 μL RPMI ATCC+10% FCS+Penstrep in a black 384-well plate, flat and clear bottom (Greiner, PNr. 781091). Cells are then incubated in the plates at 37° C. in a CO2 incubator overnight. On day 1, compounds (10 mM stock in DMSO) are added with the ECHO acoustic liquid handler system (Beckman Coulter), including DMSO controls. Plates are incubated for 120 h, and cell viability is measured using CellTiter-Glo luminescent cell viability reagent (Promega product code G7570). Viability (stated as percent of control) is defined as relative luminescence units RLU of each well divided by the RLU of cells in DMSO controls. IC50 values are determined from viability measurements by non-linear regression using a four parameter model.

SK-CO-1 cells = assay: SK-CO-1 CTG proliferation assay (120 h) (CRC, G12V); format: cell-based; conditions: Homo sapiens; SK-CO-1 cells (CRC, G12V), CTG 120 h
Method: SK-CO-1 CTG Proliferation Assay (120 h) (CRC, G12V)
SK-CO-1 cells (ATCC HTB-39) are dispensed into 384-well plates, flat and clear bottom (Greiner, PNr. 781091) at a density of 500 cells per well in 60 μL EMEM (Sigma M5650)+10% Fetal Calf Serum (HyClone, PNr.: SH30084.03) and incubated at 37° C. in a CO2 incubator overnight. The next day, compounds (10 mM stock in DMSO) are added with the ECHO acoustic liquid handler system (Beckman Coulter), including DMSO controls. Plates are incubated for 120 h, and cell viability is measured using CellTiter-Glo luminescent cell viability reagent (Promega product code G7570). Viability (stated as percent of control) is defined as relative luminescence units RLU of each well divided by the RLU of cells in DMSO controls. IC50 values are determined from viability measurements by non-linear regression using a four-parameter model.

[2] = Plasma protein binding assay (PPB), equilibrium dialysis, 10% FCS in PBS; format: in vitro ADME; conditions: bovine, read-out: PPB 10% FCS (% fu)
Method: Binding of test compounds to plasma was determined using equilibrium dialysis (ED) and quantitative mass spectrometry interfaced with liquid chromatography (LC-MS). In brief, ED was performed with dialysis devices consisting of two chambers separated by a semipermeable membrane with a molecular weight cut-off of 5-10 kg/mol. One chamber was filled with 10% FCS in PBS containing 1-10 μmol/L test compound and the other chamber was filled with phosphate-buffer saline (PBS) with or without dextran. The dialysis chamber was incubated for 3-5 hours at 37° C. After incubation, protein was precipitated from aliquots of each chamber and the concentration of test compound in the supernatant of the plasma-containing compartment (Cserum) and of the buffer-containing compartment (Cbuffer) was determined by LC-MS. The fraction of unbound test compound (not bound to plasma) (fu) was calculated according to the following equation: […]

[3] = Solubility measurement (DMSO solution method), McIlvaine buffer pH 4.5 or 6.8; format: physicochemical; conditions: aqueous buffer, kinetic from dmso stock, DMSO stock diluted to 250 μM, 24 h shaking at ambient temperature
Method: The DMSO solution is diluted with an aqueous medium (Mcllvaine buffer with pH=4.5 or 6.8) to a final concentration of 250 μM. After 24 h of shaking at ambient temperature a potentially formed precipitate is removed by filtration. The concentration of the test compound in the filtrate is determined by LC-UV methods by calibrating the signal to the signal of a reference solution with complete dissolution of the test compound in acetonitrile/water (1:1) with known concentration.

NCI-H358 cells = assay: NCI-H358 CTG proliferation assay (120 h) (NSCLC, G12C); format: cell-based, human; conditions: Homo sapiens, assay 2, CTG, read-out: H358 (assay 2) IC50
Method: NCI-H358 CTG Proliferation Assay (120 h) (NSCLC, G12C)
NCI-H358 cells (ATCC No. CRL-5807) are dispensed into white bottom opaque 96 well plates (Perkin Elmer cat no. 5680) at a density of 2000 cells per well in 100 μL RPMI-1640 ATCC-Formulation (Gibco #A10491)+10% FCS (fetal calf serum) (assay 1) or into black 384-well plates, flat and clear bottom (Greiner, PNr. 781091) at a density of 200 cells per well in 60 μl RPMI-1640 ATCC-Formulation (Gibco #A10491)+10% FCS (fetal calf serum) (assay 2). […] Compounds (10 mM stock in DMSO) are added at logarithmic dose series using the HP Digital Dispenser D300 (Tecan) (assay 1) or the ECHO acoustic liquid handler system (Beckman Coulter) (assay 2), normalizing for added DMSO and including DMSO controls. For the TO time point measurement, untreated cells are analyzed at the time of compound addition. Plates are incubated for 120 h, and cell viability is measured using CellTiter-Glo luminescent cell viability reagent (Promega product code G7570). Viability (stated as percent of control) is defined as relative luminescence units RLU of each well divided by the RLU of cells in DMSO controls. IC50 values are determined from viability measurements by non-linear regression using a four parameter model.

[4] = McIlvaine buffer pH 4.5, read-out: solubility pH 4.5
[5] = McIlvaine buffer pH 6.8, read-out: solubility pH 6.8

Row | SMILES | IC50 [1] | IC50 (NCI-H2122 cells) | IC50 (SK-CO-1 cells) | fraction unbound [2] | solubility at 24 h [3, 4] | solubility at 24 h [3, 5] | IC50 (NCI-H358 cells)
1 | C[C@H](Oc1cc(-c2ccn(-c3ccccc3)n2)nc(-c2noc3c2CCC[C@@]32CCCc3sc(N)c(C#N)c32)n1)[C@@H]1CCCN1C [II-89] | 18 nM | 1530 nM | 198 nM |  | 2 µg/mL (≈ 3.16 µM) | < 1 µg/mL | 220 nM
2 | C[C@H](Oc1cc(-c2ccn3ncnc3c2)nc(-c2noc3c2CCC[C@@]32CCCc3sc(N)c(C#N)c32)n1)[C@@H]1CCCN1C [II-104] | 12 nM |  |  | 0.18 | 3 µg/mL (≈ 4.94 µM) | < 1 µg/mL | 391 nM
3 | C[C@H](Oc1cc([C@H]2CCOC2)nc(-c2noc3c2CCC[C@@]32CCCc3sc(N)c(C#N)c32)n1)[C@@H]1CCCN1C [II-88] | 6 nM | 434 nM | 47 nM | 0.2 |  |  | 126 nM
4 | C[C@H](Oc1cc(-c2ccn(-c3ccsc3)n2)nc(-c2noc3c2CCC[C@@]32CCCc3sc(N)c(C#N)c32)n1)[C@@H]1CCCN1C [II-84] | 17 nM | 583 nM | 116 nM |  | < 1 µg/mL | < 1 µg/mL | > 25000 nM
5 | C[C@H](Oc1cc(-n2cccc3cnnc2-3)nc(-c2noc3c2CCC[C@@]32CCCc3sc(N)c(C#N)c32)n1)[C@@H]1CCCN1C [II-92] | 27 nM | 1810 nM | 279 nM | 0.09 |  |  | 3400 nM
6 | Cc1nccn1-c1cc(O[C@@H](C)[C@@H]2CCCN2C)nc(-c2noc3c2CCC[C@@]32CCCc3sc(N)c(C#N)c32)n1 [II-79] | 18 nM | 1270 nM | 188 nM | 0.15 | > 154 µg/mL | 102 µg/mL (≈ 179 µM) | 
7 | CO[C@@H]1C[C@@H]([C@H](C)Oc2cc(-c3ccn(C4COC4)n3)nc(-c3noc4c3CCC[C@@]43CCCc4sc(N)c(C#N)c43)n2)N(C)C1 [II-107] | 8 nM | 5720 nM | 181 nM | 0.24 | > 162 µg/mL | < 1 µg/mL | 
8 | C[C@H](Oc1cc(N2CCCC2=O)nc(-c2noc3c2CCC[C@@]32CCCc3sc(N)c(C#N)c32)n1)[C@@H]1CCCN1C [II-73] | 17 nM | 1610 nM | 43 nM | 0.22 | > 124 µg/mL | 88 µg/mL (≈ 153 µM) | 
9 | CO[C@@H]1C[C@@H]([C@H](C)Oc2cc(-c3cnn(C)n3)nc(-c3noc4c3CCC[C@@]43CCCc4sc(N)c(C#N)c43)n2)N(C)C1 [II-62] | 17 nM | 4790 nM | 280 nM | 0.18 | > 129 µg/mL | < 1 µg/mL | 
10 | C[C@H]1CN(C)CCCN1c1cc(N2CCN(C)CC2)nc(-c2onc3c2CCC[C@@]32CCCc3sc(N)c(C#N)c32)n1 [I-7] |  | 3460 nM | 1490 nM | 0.36 | > 139 µg/mL | > 133 µg/mL | 
11 | C[C@H](Oc1cc(-n2ccc(C#N)n2)nc(-c2noc3c2CCC[C@@]32CCCc3sc(N)c(C#N)c32)n1)[C@@H]1CCCN1C [II-102] | 4 nM | 84 nM | 37 nM | 0.04 | 24 µg/mL (≈ 41.3 µM) | < 1 µg/mL | 
12 | C[C@H](Oc1cc(-c2cn(C3CCOCC3)nn2)nc(-c2noc3c2CCC[C@@]32CCCc3sc(N)c(C#N)c32)n1)[C@@H]1CCCN1C [II-115] | 34 nM |  |  | 0.43 |  |  | 

Continued, values first:

Row | IC50 [1] | IC50 (NCI-H2122 cells) | IC50 (SK-CO-1 cells) | fraction unbound [2] | solubility at 24 h [3, 4] | solubility at 24 h [3, 5] | IC50 (NCI-H358 cells) | SMILES
13 | 52 nM | 2140 nM | 257 nM | 0.28 | 120 µg/mL (≈ 196 µM) | 57 µg/mL (≈ 92.9 µM) |  | C[C@H](Oc1cc(-c2cn(C3COC3)nn2)nc(-c2noc3c2CCC[C@@]32CCCc3sc(N)c(C#N)c32)n1)[C@@H]1CCCN1C [II-100]
14 | 115 nM | 1860 nM | 451 nM | 0.01 |  |  | 3250 nM | C[C@H](Oc1cc(N2CCc3cccnc32)nc(-c2noc3c2CCC[C@@]32CCCc3sc(N)c(C#N)c32)n1)[C@@H]1CCCN1C [II-90]
15 | 18 nM | 3820 nM | 447 nM | 0.18 | < 1 µg/mL | < 1 µg/mL |  | C[C@H](Oc1cc(-c2ccn(C3COC3)n2)nc(-c2noc3c2CCC[C@@]32CCCc3sc(N)c(C#N)c32)n1)[C@@H]1C[C@H](F)CN1C [II-83]
16 | 247 nM |  |  | 0.7 | > 141 µg/mL | > 136 µg/mL | 200 nM | C[C@H](Oc1cc(N2CCNCC23CCOC3)nc(-c2onc3c2CCC[C@@]32CCCc3sc(N)c(C#N)c32)n1)[C@@H]1CCCN1C (stereo partly shown) [I-10]
17 | 10 nM | 1670 nM | 148 nM | 0.23 |  |  |  | C[C@H](Oc1cc(-c2cncs2)nc(-c2noc3c2CCC[C@@]32CCCc3sc(N)c(C#N)c32)n1)[C@@H]1CCCN1C [II-80]
18 |  |  |  | 0.07 | 53 µg/mL (≈ 90.2 µM) | < 1 µg/mL |  | Cc1nc(-c2cc(O[C@@H](C)[C@@H]3CCCN3C)nc(-c3noc4c3CCC[C@@]43CCCc4sc(N)c(C#N)c43)n2)cs1 [II-103]
19 | 8 nM | 1120 nM | 64 nM | 0.35 |  |  |  | C[C@H](Oc1cc(-n2ccncc2=O)nc(-c2noc3c2CCC[C@@]32CCCc3sc(N)c(C#N)c32)n1)[C@@H]1CCCN1C [II-116]
